Measured values: patent publication US9504685B2, “Method for treating a pulmonary hypertension condition” (Gilead Sciences, Inc., priority 2006, dated 2016)

Test system: subjects with PAH
Experiment: Example 1 (ARIES-2) placebo-controlled Phase III trial, efficacy
Type: in vivo, human
Settings: for Change in 6MWD from baseline to Week 12, mean / Week 12 6MWD, mean: ITT population; for geometric mean percent change in plasma ET-1, increase from baseline / geometric mean plasma BNP, decrease from baseline / mean BDI change from baseline: Week 12
Procedure: The primary objective of this study was to determine the effect of ambrisentan on exercise capacity in subjects with PAH. The secondary objectives of this study were to evaluate effects of ambrisentan on other clinical measures of PAH, as well as safety and tolerability of the study drug.
Study drug was provided in round, biconvex, oral tablets that were identical in appearance. Three strengths of active study drug, containing 1 mg, 2.5 mg or 5 mg of ambrisentan, were used in this study. All study drug was packaged in blister cards. Subjects were instructed to take study drug once daily (q.d.) by mouth (p.o.) in the morning, with or without food.
The maximum study duration was up to 14 weeks from the time of initial screening procedures to the final study visit (Week 12). Screening procedures were performed a maximum of 2 weeks prior to the first dose of study drug. The maximum duration of study drug treatment was 12 weeks.
Men and women, 18 years of age or older, with idiopathic PAH, PAH associated with connective tissue disease (CTD), e.g., mixed CTD, CREST syndrome, systemic sclerosis (scleroderma), overlap syndrome or systemic lupus erythematosus, or PAH associated with anorexigen use or HIV infection were enrolled in this study. Subjects were to have a documented mean PAP≧25 mmHg, PVR>3 mmHg/L/min, and PCWP or LVEDP<15 mmHg. Subjects must have been able to walk a distance of at least 150 m but no more than 450 m during 2 consecutive 6MWTs to be eligible for inclusion in the study.
After a 2 week screening period, eligible subjects were stratified based on the underlying etiology of PAH (idiopathic or non-idiopathic) and were randomized to 1 of 3 treatment groups (placebo, 2.5 mg or 5 mg ambrisentan) in a ratio of 1:1:1. One blinded dose reduction was permitted during the 12-week treatment period in the event of study drug intolerance (e.g., 5 mg to 2.5 mg, 2.5 mg to 1 mg, placebo to placebo). Subjects received a daily dose of 1 mg ambrisentan only if they reduced from the 2.5 mg dose group. Subjects were assessed for efficacy and safety at monthly intervals.
Therefore, after a minimum treatment period of 4 weeks, subjects who met 2 or more of the following predefined early escape criteria may have been removed from the study: • (a) a decrease from baseline of at least 20% in 6MWD; • (b) an increase of 1 or more WHO functional class; • (c) worsening right ventricular failure (e.g., as indicated by increased jugular venous pressure, new or worsening hepatomegaly, ascites or peripheral edema); • (d) rapidly progressing cardiogenic, hepatic or renal failure; and/or • (e) refractory systolic hypotension (systolic blood pressure <85 mmHg).
The primary efficacy endpoint was change from baseline in 6MWD evaluated after 12 weeks of treatment compared to placebo.
The secondary efficacy endpoints included: • (a) time to clinical worsening of PAH, as defined by the time from randomization to the first occurrence of death, lung transplantation, hospitalization for PAH, atrial septostomy, study discontinuation due to addition of other PAH therapeutic agents, or study discontinuation due to 2 or more early escape criteria; • (b) change from baseline measured after 12 weeks of treatment compared to placebo in: • (i) WHO functional class; • (ii) SF-36® health survey physical functioning scale; • (iii) BDI immediately following exercise; and/or • (iv) an assessment of the safety and tolerability of the study drug; and • (c) change from baseline measured after 12 weeks of treatment compared to placebo in plasma levels of ET-1, cTnT and BNP. Safety Assessments
For the ITT population, subjects were considered as belonging to their randomized treatment group, regardless of the actual treatment received.
The primary efficacy endpoint was the change from baseline in 6MWD evaluated after 12 weeks of treatment compared to placebo, where the last observation was carried forward. […]

[1] = 2.5 mg once daily, baseline to Week 12
[2] = 5 mg once daily, baseline to Week 12

Structure (SMILES): COC(c1ccccc1)(c1ccccc1)[C@H](Oc1nc(C)cc(C)n1)C(=O)O [ambrisentan]
- placebo-adjusted improvement in mean 6MWD at Week 12 (2.5 mg once daily): +32.3 m
- subjects at least maintaining their baseline WHO functional class at Week 12 (2.5 mg once daily): 95.3%
- Clinical worsening event: Atrial septostomy (2.5 mg once daily, 12 weeks): 0 (0.0) subjects (% of ITT population)
- Clinical worsening event: Death (2.5 mg once daily, 12 weeks): 2 (3.1) subjects (% of ITT population)
- Clinical worsening event: Escape criteria (2.5 mg once daily, 12 weeks): 2 (3.1) subjects (% of ITT population)
- Clinical worsening event: Hospitalization for PAH (2.5 mg once daily, 12 weeks): 3 (4.7) subjects (% of ITT population)
- Clinical worsening event: Lung transplantation (2.5 mg once daily, 12 weeks): 0 (0.0) subjects (% of ITT population)
- Clinical worsening event: Study withdrawal due to addition of PAH treatment (2.5 mg once daily, 12 weeks): 0 (0.0) subjects (% of ITT population)
- Clinical worsening: Total subjects with ≧1 event (2.5 mg once daily, 12 weeks): 3 (4.7) subjects (% of ITT population)
- subjects who experienced an event of clinical worsening (2.5 mg once daily, 12 weeks): 4.7%
- Change in 6MWD from baseline to Week 12, mean (2.5 mg once daily): +22.2 meters
- Week 12 6MWD, mean (2.5 mg once daily): 369.6 meters
- geometric mean percent change in plasma ET-1, increase from baseline (2.5 mg once daily): 19%
- geometric mean plasma BNP, decrease from baseline (2.5 mg once daily): 29%
- mean BDI change from baseline (2.5 mg once daily): −0.20
- Change in SF-36 Bodily pain, mean (SD) [1]: +2.34 (11.87)
- Change in SF-36 General health, mean (SD) [1]: +3.84 (6.71)
- Change in SF-36 Mental component summary, mean (SD) [1]: +4.05 (10.30)
- Change in SF-36 Mental health, mean (SD) [1]: +4.98 (9.70)
- Change in SF-36 Physical component summary, mean (SD) [1]: +3.78 (7.63)
- Change in SF-36 Physical functioning, mean (SD) [1]: +3.86 (7.14)
- Change in SF-36 Role-emotional, mean (SD) [1]: +3.11 (12.90)
- Change in SF-36 Role-physical, mean (SD) [1]: +5.87 (11.72)
- Change in SF-36 Social functioning, mean (SD) [1]: +4.55 (9.72)
- Change in SF-36 Vitality, mean (SD) [1]: +4.07 (9.12)
- Change in WHO functional class: +1 class [1]: 2 (3.1) subjects (% of ITT population)
- Change in WHO functional class: +2 classes [1]: 1 (1.6) subjects (% of ITT population)
- Change in WHO functional class: no change [1]: 51 (79.7) subjects (% of ITT population)
- Change in WHO functional class: −1 class [1]: 10 (15.6) subjects (% of ITT population)
- Change in WHO functional class: −2 classes [1]: 0 (0.0) subjects (% of ITT population)
- placebo-adjusted improvement in mean 6MWD at Week 12 (5 mg once daily): +59.4 m
- subjects at least maintaining their baseline WHO functional class at Week 12 (5 mg once daily): 96.8%
- Clinical worsening event: Atrial septostomy (5 mg once daily, 12 weeks): 0 (0.0) subjects (% of ITT population)
- Clinical worsening event: Death (5 mg once daily, 12 weeks): 0 (0.0) subjects (% of ITT population)
- Clinical worsening event: Escape criteria (5 mg once daily, 12 weeks): 1 (1.6) subjects (% of ITT population)
- Clinical worsening event: Hospitalization for PAH (5 mg once daily, 12 weeks): 2 (3.2) subjects (% of ITT population)
- Clinical worsening event: Lung transplantation (5 mg once daily, 12 weeks): 0 (0.0) subjects (% of ITT population)
- Clinical worsening event: Study withdrawal due to addition of PAH treatment (5 mg once daily, 12 weeks): 0 (0.0) subjects (% of ITT population)
- Clinical worsening: Total subjects with ≧1 event (5 mg once daily, 12 weeks): 3 (4.8) subjects (% of ITT population)
- subjects hospitalized for worsening right heart failure (5 mg once daily, 12 weeks): 1 subjects
- subjects who experienced an event of clinical worsening (5 mg once daily, 12 weeks): 4.8%
- Change in 6MWD from baseline to Week 12, mean (5 mg once daily): +49.4 meters
- Week 12 6MWD, mean (5 mg once daily): 404.7 meters
- geometric mean percent change in plasma ET-1, increase from baseline (5 mg once daily): 72%
- geometric mean plasma BNP, decrease from baseline (5 mg once daily): 30%
- mean BDI change from baseline (5 mg once daily): −0.36
- Change in SF-36 Bodily pain, mean (SD) [2]: +0.46 (9.99)
- Change in SF-36 General health, mean (SD) [2]: +4.95 (8.05)
- Change in SF-36 Mental component summary, mean (SD) [2]: +6.28 (11.64)
- Change in SF-36 Mental health, mean (SD) [2]: +4.03 (10.13)
- Change in SF-36 Physical component summary, mean (SD) [2]: +2.97 (7.79)
- Change in SF-36 Physical functioning, mean (SD) [2]: +2.96 (6.81)
- Change in SF-36 Role-emotional, mean (SD) [2]: +8.15 (14.43)
